Activity calls are given as the source filed them. Cut-off read from the data, not from the text of the source, for most assays here: actives have a measured EC50 and inactives only a lower limit.
Key:
cells [1] = type: functional, cell-based
cells [2] = type: functional, cell-based; remark: listed apart in the source
[3] = Luminescence Cell-Based Dose Confirmation HTS to Identify Activators of 5'UTR Stem-Loop Driven Alpha-Synuclein mRNA Translation in H4 Neuroglioblastoma Cells. [Related pubchem assays: 1829 (Project Summary), 1814 (Primary HTS)]; type: functional
[4] = Luminescence Cell-Based Dose Response HTS to Identify Activators of Luciferase Translation or Activity in H4 […] Cells. [Related pubchem assays: 1829 (Project Summary), 1814 (Primary HTS)]; type: functional
[5] = biological target: T1, Corticotropin-releasing factor receptor 2/Corticotropin-releasing factor-binding protein (Homo sapiens, UniProt P24387+Q13324); assay: activators of CRF receptor 2 with binding protein – uHTS hits, confirmation (AID 602473); type: functional; conditions: read-out: EC50_Mean
T1 sequence (Q13324 whole entry): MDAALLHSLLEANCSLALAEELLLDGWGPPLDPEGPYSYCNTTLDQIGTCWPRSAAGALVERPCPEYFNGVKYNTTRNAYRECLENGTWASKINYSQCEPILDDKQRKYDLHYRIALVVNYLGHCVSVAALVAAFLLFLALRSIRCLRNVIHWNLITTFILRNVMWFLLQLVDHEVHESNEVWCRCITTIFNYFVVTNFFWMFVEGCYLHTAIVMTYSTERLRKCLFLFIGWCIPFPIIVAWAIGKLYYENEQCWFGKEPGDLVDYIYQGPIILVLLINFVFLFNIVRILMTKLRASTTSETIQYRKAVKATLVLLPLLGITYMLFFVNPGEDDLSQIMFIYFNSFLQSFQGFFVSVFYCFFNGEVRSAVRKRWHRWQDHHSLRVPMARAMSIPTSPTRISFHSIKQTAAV
T1 sequence (P24387 whole entry): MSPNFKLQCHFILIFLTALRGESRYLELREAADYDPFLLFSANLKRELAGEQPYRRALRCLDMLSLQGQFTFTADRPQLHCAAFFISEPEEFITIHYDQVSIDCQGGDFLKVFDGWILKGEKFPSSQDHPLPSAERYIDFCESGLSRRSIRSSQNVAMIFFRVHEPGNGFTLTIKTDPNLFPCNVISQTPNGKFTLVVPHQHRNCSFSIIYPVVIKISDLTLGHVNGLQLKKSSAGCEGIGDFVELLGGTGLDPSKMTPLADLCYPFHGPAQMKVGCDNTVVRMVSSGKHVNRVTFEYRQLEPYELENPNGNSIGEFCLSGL

[6] = biological target: T1, Corticotropin-releasing factor receptor 2/Corticotropin-releasing factor-binding protein; assay: Dose Response confirmation of uHTS hits for small molecule antagonists of the CRF-binding protein and CRF-R2 receptor complex.; type: functional; conditions: read-out: IC50_Mean
H4 = assay: Luminescence Cell-Based Dose Response HTS to Identify Activators of 5'UTR Stem-Loop Driven Prion Protein mRNA Translation in H4 Neuroglioblastoma Cells. [Related pubchem assays: 1829 (Project Summary), 1814 (Primary HTS)]; type: functional; conditions: Homo sapiens
[7] = HepG2 cell cytotoxicity, dose response, cytotoxicity control for Shn3 inhibitor project, CellTiter-Glo, cherry-picked (AID 624134); type: functional, cell-based
[8] = Shn3 3'UTR reporter inhibitors, dose response, cell-based, Clone20 osteoblasts, firefly luciferase, cherry-picked (AID 624132); type: functional;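 note: firefly luciferase luminescence from reporter carrying the Shn3 3'UTR in osteoblasts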
[9] = control 3'UTR Renilla luciferase suppression, dose response, counter-screen for Shn3 inhibitor project, cell-based, Clone20-Shn3RL, cherry-picked (AID 624133); type: functional
Protein RecA = biological target: T2, Protein RecA (Mycobacterium tuberculosis, UniProt P9WHJ3); assay: Fluorescence Cell-Free Homogeneous Dose Retest to Identify Inhibitors of RecA-Intein Splicing Activity. [Related pubchem assays (depositor defined):AID2097, AID2223, AID489010, AID492950]; type: functional
T2 sequence (P9WHJ3 whole entry): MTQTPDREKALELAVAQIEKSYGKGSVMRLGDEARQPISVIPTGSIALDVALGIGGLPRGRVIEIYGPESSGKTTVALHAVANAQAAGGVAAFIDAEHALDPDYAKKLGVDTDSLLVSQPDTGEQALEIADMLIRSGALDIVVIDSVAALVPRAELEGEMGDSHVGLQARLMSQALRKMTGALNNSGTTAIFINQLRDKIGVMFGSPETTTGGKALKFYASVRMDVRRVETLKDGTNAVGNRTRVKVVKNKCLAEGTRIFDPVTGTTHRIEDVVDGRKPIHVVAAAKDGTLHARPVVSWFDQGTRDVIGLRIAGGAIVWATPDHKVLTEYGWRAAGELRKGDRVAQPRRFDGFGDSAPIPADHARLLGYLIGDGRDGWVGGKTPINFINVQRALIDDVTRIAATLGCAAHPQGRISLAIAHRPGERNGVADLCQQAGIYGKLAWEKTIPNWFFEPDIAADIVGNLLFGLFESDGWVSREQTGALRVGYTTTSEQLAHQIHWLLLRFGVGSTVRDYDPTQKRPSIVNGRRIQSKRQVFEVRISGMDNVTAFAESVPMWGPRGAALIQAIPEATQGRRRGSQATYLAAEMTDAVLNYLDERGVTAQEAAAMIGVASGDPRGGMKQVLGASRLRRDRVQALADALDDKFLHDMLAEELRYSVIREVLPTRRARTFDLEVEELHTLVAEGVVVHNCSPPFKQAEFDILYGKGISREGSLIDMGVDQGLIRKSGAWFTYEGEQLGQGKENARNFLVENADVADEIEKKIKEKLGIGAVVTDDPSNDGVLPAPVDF

[10] = biological target: T3, Replicative DNA helicase DnaB (Mycobacterium tuberculosis, UniProt P9WMR3); assay: DnaB intein splicing inhibitors, dose response, biochemical, cell-free fluorescence (AID 449749); type: functional
T3 sequence (P9WMR3 whole entry): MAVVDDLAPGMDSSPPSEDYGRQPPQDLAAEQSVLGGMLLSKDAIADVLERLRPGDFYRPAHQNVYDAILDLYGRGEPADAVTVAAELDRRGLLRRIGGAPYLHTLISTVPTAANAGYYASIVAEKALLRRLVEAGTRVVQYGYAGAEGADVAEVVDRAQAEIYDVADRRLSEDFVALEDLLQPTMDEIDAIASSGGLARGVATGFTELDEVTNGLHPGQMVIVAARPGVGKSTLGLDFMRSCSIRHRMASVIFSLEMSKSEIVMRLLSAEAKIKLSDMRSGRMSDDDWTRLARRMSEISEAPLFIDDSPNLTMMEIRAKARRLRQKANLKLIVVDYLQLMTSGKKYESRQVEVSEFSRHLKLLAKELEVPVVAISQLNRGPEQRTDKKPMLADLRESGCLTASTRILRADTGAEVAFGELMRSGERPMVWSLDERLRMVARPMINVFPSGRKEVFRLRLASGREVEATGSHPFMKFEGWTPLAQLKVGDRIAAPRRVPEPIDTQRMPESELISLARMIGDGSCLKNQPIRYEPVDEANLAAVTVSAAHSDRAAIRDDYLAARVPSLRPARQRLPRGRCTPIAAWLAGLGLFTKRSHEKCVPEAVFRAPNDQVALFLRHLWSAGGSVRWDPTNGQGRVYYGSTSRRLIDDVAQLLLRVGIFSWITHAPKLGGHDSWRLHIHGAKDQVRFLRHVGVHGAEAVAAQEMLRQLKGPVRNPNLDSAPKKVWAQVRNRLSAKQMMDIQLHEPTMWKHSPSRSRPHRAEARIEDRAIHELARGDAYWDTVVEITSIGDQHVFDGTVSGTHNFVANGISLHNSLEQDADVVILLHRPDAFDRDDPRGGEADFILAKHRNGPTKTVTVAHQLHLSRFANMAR

[11] = cytotoxicity toward NIH3T3 fibroblasts, dose response, counter-screen, cell-based, ATP luminescence, mouse fibroblasts (AID 2010); type: functional;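 note: cells exposed to compound for about 90 hours before reading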
[12] = inhibitors of intracellular T. cruzi replication, confirmation, NIH3T3 host cells, beta-gal luminescence (AID 2044); type: functional, cell-based;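 note: intracellular parasites grown in NIH/3T3 mouse fibroblasts as host cells; luminescent beta-galactosidase reporter signal from transgenic T. cruzi replicating inside host cells; inhibitors lower the luminescence signal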
Paired box protein Pax-8 = Paired box protein Pax-8 (Homo sapiens, UniProt Q06710); assay: inhibitors of PAX8-driven TPO luciferase reporter, dose response, RMG-I cells, cherry-pick (AID 687027); type: functional, cell-based;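 note: luciferase reporter driven by Pax8 target thyroperoxidase promoter measured by SteadyGlo luminescence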
Sequence of Paired box protein Pax-8 (Q06710 whole entry): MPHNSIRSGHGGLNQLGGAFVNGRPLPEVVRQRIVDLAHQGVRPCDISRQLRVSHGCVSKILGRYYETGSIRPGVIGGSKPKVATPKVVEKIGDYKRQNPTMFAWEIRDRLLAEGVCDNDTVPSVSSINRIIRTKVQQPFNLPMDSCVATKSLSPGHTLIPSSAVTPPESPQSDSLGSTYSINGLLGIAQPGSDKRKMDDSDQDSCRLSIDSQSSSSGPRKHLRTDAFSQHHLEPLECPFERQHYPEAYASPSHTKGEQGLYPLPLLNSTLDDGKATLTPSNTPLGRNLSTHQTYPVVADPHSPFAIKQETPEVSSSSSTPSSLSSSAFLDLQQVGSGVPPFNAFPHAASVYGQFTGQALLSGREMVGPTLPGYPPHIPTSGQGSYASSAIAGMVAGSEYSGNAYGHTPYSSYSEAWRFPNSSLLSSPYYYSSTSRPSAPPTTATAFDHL

Compound | EC50 [3] | EC50 [4] | EC50 [5] | EC50 (H4) | further results
COc1ccc(C(=O)N2CCCCCC2)cc1S(=O)(=O)N1CCOCC1 |  |  |  |  | EC50 (cells [1]): > 350 µM (not active); EC50 (cells [2]): > 350 µM (not active)
Cc1c(C(=O)NC(=S)NCC(C)C)oc2ccccc12 | 27.2 µM (active) | 63.2 µM (active) |  |  | 
COCCn1c(SCC(=O)c2ccc3c(c2)OCCO3)nnc1-c1ccco1 |  |  | > 53 µM (inactive) |  | IC50 [6]: > 47.1 µM (inactive)
CC1CCCCN1C(=O)CSc1nc2ccsc2c(=O)n1Cc1ccccn1 (configuration not stated) | 46.3 µM (active) | 5.86 µM (active) |  | 9.84 µM (active) | 
CCc1c(C)nc2ncnn2c1Nc1ccc(C(C)=O)cc1 | 34.4 µM (active) | 92 µM (active) |  | 57.4 µM (active) | 
COc1ccc(OC)c(C(=O)Cn2nnc(-c3ccc(N4CCOCC4)cc3)n2)c1 | > 120 µM (not active) | > 120 µM (not active) |  | > 120 µM (not active) | 
C[C@H]1CN=C(N(C)C)N1CC1CCC(C(C)(C)C)CC1 (some centres not stated) |  |  |  |  | AC50 [7]: 41.5 µM (active); AC50 [8]: 2.27 µM (active); AC50 [9]: 20.3 µM (active)
Nc1ccc(C(=O)Nc2ccc3[nH]c(-c4ccncc4)nc3c2)cc1 |  |  |  |  | EC50 (cells [1]): 49.5 µM (active); EC50 (cells [2]): > 350 µM (not active)
CC(C)c1ccc(NCCC(=O)c2cccs2)cc1 | 4.14 µM (active) | 33.1 µM (active) |  | 61.8 µM (active) | 
COc1ccc(NC(=O)CSc2nnc(N)s2)c([N+](=O)[O-])c1 |  |  | > 53 µM (inactive) |  | IC50 [6]: > 47.1 µM (inactive)
O=C1CCCC/C1=C/Nc1ccc2c(c1)OCO2 | 8.5 µM (active) | 7.34 µM (active) |  | > 120 µM (not active) | 
Cc1ccc(C(=O)NC(=S)NCC2CCCO2)cc1Br (configuration not stated) | 11 µM (active) | 21 µM (active) |  | 45.5 µM (active) | 
Cc1ccc(NC(=O)c2cc(NC(=O)/C=C\C(=O)O)ccc2N2CCCCC2)cc1 |  |  | > 53 µM (inactive) |  | EC50 (Protein RecA): 9.32 µM (active); IC50 [6]: > 47.1 µM (inactive); AC50 [10]: 14.4 µM (active)
CCOC(=O)N1CCN(C(=O)CCNS(=O)(=O)c2ccc3c(c2)c(=O)n(C)c(=O)n3C)CC1 | > 120 µM (not active) | > 120 µM (not active) |  | > 120 µM (not active) | 
CCN1CCN(C(=O)C2=CC(c3ccc(OC)cc3)=NS(=O)(=O)N2C)CC1 |  |  | > 53 µM (inactive) |  | IC50 [6]: > 47.1 µM (inactive)
CCCCn1c(=O)c2c(=O)cc(O)oc2c2ccccc21 |  |  |  |  | EC50 (cells [1]): > 350 µM (not active); EC50 (cells [2]): > 350 µM (not active)

Compound | EC50 [3] | EC50 [4] | EC50 [5] | EC50 (H4) | further results
c1ccc2c(c1)oc1c(NCC3CCCO3)ncnc12 (configuration not stated) | 8.39 µM (active) | 19 µM (active) |  | 7.09 µM (active) | 
Cc1ccsc1C1Nc2ccccc2-c2nc3ccccc3n21 (configuration not stated) | 24.3 µM (active) | 60.7 µM (active) |  | 26.1 µM (active) | 
NC(Cc1ccccc1Sc1ccccc1)=NO |  |  | > 53 µM (inactive) |  | IC50 [6]: > 47.1 µM (inactive)
CN(Cc1cccs1)C(=O)Cc1csc(-c2ccccc2)n1 | 32 µM (active) | 10.1 µM (active) |  | 15.9 µM (active) | 
COc1cc(CCC(=O)NC2(C)CCS(=O)(=O)C2)cc(OC)c1OC (configuration not stated) |  |  | > 53 µM (inactive) |  | IC50 [6]: > 47.1 µM (inactive)
Cc1ccc(NC(=O)Nc2cccc(F)c2)nc1 |  |  |  |  | EC50 (cells [1]): > 350 µM (not active); EC50 (cells [2]): 11.8 µM (active)
COc1ccc(CCN2CCCC(CN(C)C(=O)c3cc(C)oc3C)C2)cc1 (configuration not stated) | 41.5 µM (active) | 31.9 µM (active) |  | 32.7 µM (active) | EC50 [11]: > 60 µM (not active); EC50 [12]: 0.149 µM (active)
COc1cc2c(c(OC)c1OC)-c1ccc(SC)c(=O)cc1C(NC=O)CC2 (configuration not stated) |  |  |  |  | AC50 (Paired box protein Pax-8): < 0.26 µM (active)
COc1ccc(S(=O)(=O)N2CCOCC2)cc1NC(=O)CC1CC2CCC1C2 (configuration not stated) |  |  | > 53 µM (inactive) |  | IC50 [6]: > 47.1 µM (inactive)
COc1ccc2ccccc2c1CNCCCN1CCOCC1 |  |  | > 53 µM (inactive) |  | IC50 [6]: > 47.1 µM (inactive)
O=C(NCc1cc(C(F)(F)F)ccc1Cl)c1cccc2c1C(=O)c1ccc(N3CCCCC3)cc1S2(=O)=O |  |  | 6.26 µM (active) |  | 
COc1cccc(CNC(=O)C2CCC(=O)N(CC3CCCCC3)C2)c1OC (configuration not stated) |  |  | > 53 µM (inactive) |  | IC50 [6]: > 47.1 µM (inactive)
Cc1ccc(-c2nn(-c3ccccc3)cc2/C=N/n2c(S)nnc2-c2ccncc2)cc1 | > 120 µM (not active) | 34.3 µM (active) |  | 34.1 µM (active) | 
C[C@@H]1CN([C@@H](C)CO)C(=O)c2cc(NC(=O)Nc3cccc4ccccc34)ccc2O[C@@H]1CN(C)Cc1ccc2c(c1)OCO2 |  |  |  |  | AC50 (Paired box protein Pax-8): 18.5 µM (active)
C[C@@H]1CCCCO[C@H](CN(C)C(=O)Nc2ccc(C(F)(F)F)cc2)[C@@H](C)CN([C@@H](C)CO)C(=O)c2cc(NS(=O)(=O)c3ccccc3)ccc2O1 |  |  |  |  | AC50 (Paired box protein Pax-8): 3.24 µM (active)
CCc1nnc(S)n1/N=C/c1ccc(-c2ccc(Br)cc2)o1 |  |  |  |  | EC50 (cells [1]): > 350 µM (not active); EC50 (cells [2]): > 350 µM (not active)

— ChEMBL document CHEMBL1201862, “PubChem BioAssay data set” (2004)
